Read-outs that look alike come from different tables or passages of the source. One block for each compound: values may come before it.
How the values were obtained:
Assay in all cases: biochemical
Design in all cases: DiscoveRx KINOMEscan active site-directed competition binding; percent of control kinase bound to immobilised ligand
FLT3(ITD,D835V) = molecular target: T1, FLT3(ITD,D835V) (Homo sapiens, UniProt P36888, D835V/ITD)
T1 sequence (P36888 564-993 D835V): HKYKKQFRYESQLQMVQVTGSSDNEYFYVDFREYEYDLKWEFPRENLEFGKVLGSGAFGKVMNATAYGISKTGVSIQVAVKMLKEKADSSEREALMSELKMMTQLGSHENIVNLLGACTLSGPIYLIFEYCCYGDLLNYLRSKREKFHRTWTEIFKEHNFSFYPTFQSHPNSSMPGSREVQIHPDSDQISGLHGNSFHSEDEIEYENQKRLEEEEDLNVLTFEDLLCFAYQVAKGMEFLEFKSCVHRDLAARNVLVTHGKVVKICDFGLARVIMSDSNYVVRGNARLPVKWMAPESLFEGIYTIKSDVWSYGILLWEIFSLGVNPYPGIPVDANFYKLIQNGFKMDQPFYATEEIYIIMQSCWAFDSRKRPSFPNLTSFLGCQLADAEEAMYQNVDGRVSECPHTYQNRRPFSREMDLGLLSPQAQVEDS

LKB1 = molecular target: T2, LKB1 (Homo sapiens, UniProt Q15831)
T2 construct: gene STK11
T2 sequence (Q15831 1-433): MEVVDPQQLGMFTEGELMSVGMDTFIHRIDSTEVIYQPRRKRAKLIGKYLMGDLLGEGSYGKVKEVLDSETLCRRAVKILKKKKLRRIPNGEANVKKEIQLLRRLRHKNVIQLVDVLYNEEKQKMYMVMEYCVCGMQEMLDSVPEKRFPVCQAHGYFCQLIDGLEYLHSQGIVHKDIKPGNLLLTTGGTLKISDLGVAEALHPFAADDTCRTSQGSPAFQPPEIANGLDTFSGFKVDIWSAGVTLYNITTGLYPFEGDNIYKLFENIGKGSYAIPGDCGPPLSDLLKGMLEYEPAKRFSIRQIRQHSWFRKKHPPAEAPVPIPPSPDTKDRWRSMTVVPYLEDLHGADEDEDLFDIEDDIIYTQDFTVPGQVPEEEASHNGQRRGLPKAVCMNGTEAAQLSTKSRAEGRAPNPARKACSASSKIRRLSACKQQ

MAST1 = MAST1 (Homo sapiens, UniProt Q9Y2H9)
MAST1, sequence (Q9Y2H9 whole entry): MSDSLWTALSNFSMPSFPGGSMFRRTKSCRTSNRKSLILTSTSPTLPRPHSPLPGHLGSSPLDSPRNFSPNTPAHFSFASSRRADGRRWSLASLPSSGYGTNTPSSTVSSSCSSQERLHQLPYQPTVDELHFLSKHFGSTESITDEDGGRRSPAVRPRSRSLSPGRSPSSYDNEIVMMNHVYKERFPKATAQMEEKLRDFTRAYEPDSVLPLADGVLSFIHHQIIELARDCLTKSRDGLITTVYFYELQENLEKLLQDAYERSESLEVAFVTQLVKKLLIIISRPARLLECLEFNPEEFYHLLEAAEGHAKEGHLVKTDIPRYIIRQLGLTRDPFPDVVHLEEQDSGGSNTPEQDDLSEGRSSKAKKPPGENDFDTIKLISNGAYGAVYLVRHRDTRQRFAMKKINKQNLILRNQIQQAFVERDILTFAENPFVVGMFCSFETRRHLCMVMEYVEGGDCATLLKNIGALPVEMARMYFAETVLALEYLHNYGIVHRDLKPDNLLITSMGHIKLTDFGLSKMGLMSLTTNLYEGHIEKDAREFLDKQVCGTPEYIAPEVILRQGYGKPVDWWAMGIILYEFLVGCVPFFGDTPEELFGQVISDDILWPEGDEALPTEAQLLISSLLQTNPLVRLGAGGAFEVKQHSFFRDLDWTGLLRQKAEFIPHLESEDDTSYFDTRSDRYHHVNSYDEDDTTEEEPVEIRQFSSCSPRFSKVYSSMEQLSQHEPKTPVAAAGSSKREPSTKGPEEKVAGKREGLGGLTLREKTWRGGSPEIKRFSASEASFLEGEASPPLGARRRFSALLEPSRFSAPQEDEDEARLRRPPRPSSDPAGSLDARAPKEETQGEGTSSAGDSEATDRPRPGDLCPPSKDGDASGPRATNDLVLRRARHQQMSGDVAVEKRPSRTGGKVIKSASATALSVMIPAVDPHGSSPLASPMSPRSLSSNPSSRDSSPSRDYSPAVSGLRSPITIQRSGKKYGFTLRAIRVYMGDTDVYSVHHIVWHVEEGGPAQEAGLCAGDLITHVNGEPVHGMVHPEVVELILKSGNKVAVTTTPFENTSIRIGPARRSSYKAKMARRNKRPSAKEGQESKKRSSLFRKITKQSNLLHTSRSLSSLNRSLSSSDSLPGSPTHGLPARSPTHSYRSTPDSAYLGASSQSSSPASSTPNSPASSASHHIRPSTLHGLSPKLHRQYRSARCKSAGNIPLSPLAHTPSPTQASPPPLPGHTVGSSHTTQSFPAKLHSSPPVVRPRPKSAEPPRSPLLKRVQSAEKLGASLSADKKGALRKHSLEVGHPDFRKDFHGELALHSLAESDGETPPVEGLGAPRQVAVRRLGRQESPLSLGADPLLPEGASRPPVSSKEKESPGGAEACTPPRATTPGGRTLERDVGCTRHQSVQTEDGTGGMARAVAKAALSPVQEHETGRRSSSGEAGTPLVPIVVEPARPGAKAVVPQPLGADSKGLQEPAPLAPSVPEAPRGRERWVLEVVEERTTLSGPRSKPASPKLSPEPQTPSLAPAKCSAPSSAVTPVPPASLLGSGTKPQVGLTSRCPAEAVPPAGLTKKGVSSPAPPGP

MKNK1 = MKNK1 (Homo sapiens, UniProt Q9BUB5)
MKNK1, sequence (Q9BUB5 whole entry): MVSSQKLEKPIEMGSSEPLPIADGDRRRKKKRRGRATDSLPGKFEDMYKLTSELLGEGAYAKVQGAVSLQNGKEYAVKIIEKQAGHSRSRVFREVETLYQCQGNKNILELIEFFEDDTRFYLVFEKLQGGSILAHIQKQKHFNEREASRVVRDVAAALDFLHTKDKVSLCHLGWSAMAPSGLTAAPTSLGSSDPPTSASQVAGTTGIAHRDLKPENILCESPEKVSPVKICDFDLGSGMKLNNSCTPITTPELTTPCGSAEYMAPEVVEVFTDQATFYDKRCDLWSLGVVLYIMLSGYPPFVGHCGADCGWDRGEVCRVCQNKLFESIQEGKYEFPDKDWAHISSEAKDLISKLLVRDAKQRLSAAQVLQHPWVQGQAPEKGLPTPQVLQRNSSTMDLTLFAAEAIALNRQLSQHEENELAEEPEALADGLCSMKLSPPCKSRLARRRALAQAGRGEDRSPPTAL

PIK3CA(Q546K) = PIK3CA(Q546K) (Homo sapiens, UniProt P42336, Q546K)
PIP5K2B = molecular target: T3, PIP5K2B (Homo sapiens, UniProt P78356)
T3 construct: gene PIP4K2B
T3 sequence (P78356 1-416): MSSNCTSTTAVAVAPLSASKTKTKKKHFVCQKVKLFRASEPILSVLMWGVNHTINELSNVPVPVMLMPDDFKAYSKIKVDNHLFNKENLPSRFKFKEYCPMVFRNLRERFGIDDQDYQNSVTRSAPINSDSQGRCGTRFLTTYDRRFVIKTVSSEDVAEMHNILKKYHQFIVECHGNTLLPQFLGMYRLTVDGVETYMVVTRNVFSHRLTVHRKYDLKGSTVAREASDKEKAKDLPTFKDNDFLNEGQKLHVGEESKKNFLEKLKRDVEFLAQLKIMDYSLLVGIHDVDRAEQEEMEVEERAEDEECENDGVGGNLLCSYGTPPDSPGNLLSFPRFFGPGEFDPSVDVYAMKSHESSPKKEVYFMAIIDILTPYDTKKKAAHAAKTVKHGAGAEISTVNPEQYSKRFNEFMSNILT

PKN2 = PKN2 (Homo sapiens, UniProt Q16513)
PKN2, sequence (Q16513 whole entry): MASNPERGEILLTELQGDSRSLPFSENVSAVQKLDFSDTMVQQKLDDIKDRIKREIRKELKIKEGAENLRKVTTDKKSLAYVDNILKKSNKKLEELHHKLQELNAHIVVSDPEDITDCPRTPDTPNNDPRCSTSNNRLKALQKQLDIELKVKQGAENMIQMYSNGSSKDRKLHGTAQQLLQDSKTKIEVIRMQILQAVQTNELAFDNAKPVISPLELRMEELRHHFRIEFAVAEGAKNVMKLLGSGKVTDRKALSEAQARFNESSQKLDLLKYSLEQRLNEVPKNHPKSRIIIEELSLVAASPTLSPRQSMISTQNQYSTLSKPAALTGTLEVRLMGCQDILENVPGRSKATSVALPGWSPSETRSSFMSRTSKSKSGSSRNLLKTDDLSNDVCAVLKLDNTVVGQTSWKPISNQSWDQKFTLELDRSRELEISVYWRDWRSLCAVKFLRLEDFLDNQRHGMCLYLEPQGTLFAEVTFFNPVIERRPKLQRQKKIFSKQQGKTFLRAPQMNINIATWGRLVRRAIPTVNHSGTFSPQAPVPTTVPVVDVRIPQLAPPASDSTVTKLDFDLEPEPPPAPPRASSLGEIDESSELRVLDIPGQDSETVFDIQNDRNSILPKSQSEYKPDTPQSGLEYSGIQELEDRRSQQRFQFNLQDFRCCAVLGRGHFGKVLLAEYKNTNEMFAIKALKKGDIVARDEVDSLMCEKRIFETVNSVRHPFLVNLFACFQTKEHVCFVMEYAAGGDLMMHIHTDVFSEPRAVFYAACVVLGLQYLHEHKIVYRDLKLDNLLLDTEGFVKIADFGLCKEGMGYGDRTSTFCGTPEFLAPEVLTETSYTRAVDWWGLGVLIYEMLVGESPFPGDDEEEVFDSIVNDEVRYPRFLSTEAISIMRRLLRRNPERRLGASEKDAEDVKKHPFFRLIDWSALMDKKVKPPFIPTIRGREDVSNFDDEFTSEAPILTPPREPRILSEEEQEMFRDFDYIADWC

PYK2 = molecular target: T4, PYK2 (Homo sapiens, UniProt Q14289)
T4 construct: gene PTK2B
T4 sequence (Q14289 whole entry): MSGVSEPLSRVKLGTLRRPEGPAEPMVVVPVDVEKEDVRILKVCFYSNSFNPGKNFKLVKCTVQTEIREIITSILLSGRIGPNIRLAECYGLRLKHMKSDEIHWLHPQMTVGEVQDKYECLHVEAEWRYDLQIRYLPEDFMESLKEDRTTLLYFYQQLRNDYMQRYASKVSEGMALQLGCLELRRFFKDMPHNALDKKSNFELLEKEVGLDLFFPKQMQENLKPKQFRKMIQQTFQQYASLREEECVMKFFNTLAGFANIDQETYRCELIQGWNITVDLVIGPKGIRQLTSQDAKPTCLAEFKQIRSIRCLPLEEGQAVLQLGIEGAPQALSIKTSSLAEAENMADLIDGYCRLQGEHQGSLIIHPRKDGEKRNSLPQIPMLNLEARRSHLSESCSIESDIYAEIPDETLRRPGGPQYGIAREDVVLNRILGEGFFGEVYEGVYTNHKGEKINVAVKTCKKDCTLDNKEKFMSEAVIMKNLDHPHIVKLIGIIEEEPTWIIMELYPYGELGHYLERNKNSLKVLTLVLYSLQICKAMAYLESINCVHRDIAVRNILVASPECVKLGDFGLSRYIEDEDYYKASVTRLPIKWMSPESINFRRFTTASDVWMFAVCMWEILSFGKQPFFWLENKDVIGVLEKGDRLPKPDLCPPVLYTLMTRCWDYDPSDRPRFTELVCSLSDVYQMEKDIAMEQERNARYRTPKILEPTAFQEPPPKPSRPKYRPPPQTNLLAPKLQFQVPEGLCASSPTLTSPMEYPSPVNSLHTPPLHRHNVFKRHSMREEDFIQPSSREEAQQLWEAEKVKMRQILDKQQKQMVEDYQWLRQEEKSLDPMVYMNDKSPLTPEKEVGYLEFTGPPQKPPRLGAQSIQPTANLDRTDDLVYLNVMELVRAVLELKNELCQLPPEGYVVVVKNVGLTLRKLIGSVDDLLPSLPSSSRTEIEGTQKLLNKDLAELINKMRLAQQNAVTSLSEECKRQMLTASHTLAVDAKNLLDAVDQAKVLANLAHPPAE

TNK1 = molecular target: T5, TNK1 (Homo sapiens, UniProt Q13470)
T5 sequence (Q13470 1-666): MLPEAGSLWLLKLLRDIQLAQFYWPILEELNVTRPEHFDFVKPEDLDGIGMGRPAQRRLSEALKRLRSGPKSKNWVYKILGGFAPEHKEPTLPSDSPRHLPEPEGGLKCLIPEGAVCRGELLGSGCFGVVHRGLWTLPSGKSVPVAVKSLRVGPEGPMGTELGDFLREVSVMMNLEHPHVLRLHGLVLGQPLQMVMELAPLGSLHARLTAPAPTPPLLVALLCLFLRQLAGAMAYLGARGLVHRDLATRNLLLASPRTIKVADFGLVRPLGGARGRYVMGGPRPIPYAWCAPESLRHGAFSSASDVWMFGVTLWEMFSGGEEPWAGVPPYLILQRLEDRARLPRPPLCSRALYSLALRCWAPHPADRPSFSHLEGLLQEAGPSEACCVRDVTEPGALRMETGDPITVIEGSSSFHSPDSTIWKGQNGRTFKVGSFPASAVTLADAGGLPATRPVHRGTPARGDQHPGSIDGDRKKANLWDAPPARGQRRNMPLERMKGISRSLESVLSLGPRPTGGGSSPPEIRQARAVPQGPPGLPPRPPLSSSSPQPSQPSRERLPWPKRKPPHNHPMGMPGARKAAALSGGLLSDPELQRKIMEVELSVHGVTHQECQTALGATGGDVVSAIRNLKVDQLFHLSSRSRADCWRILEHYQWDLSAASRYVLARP

TRKB = molecular target: T6, TRKB (Homo sapiens, UniProt Q16620)
T6 construct: gene NTRK2
T6 sequence (Q16620 whole entry): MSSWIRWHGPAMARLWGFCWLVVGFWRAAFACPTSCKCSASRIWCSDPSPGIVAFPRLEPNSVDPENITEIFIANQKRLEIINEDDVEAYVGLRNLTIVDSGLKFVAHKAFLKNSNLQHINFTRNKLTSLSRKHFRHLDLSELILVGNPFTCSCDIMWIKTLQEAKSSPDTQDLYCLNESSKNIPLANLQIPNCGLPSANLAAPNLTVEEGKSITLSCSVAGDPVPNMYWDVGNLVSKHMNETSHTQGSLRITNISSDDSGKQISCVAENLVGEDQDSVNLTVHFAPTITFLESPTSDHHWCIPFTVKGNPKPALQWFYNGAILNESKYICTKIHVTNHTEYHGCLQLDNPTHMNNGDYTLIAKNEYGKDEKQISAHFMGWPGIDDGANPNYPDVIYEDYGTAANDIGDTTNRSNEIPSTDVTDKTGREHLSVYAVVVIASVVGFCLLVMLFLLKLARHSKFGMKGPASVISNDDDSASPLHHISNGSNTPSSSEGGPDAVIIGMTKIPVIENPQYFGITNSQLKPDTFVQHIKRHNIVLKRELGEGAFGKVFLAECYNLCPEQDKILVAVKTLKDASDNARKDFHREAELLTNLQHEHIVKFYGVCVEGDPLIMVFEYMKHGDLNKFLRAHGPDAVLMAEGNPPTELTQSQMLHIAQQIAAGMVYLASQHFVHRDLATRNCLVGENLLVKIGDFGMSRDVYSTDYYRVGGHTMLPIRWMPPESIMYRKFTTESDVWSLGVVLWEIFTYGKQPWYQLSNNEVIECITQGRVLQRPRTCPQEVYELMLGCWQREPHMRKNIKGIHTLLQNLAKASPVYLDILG

[1] = read-out: Niraparib (MK-4827) / %Ctrl @ 10000nM
[2] = read-out: Olaparib / %Ctrl @ 10000nM
[3] = read-out: Rucaparib / %Ctrl @ 10000nM, binding competition, % of control
[4] = read-out: Talazoparib (BMN 673) / %Ctrl @ 10000nM

SMILES: NC(=O)c1cccc2cn(-c3ccc([C@@H]4CCCNC4)cc3)nc12 [Niraparib]
percent of control binding at 10 µM (FLT3(ITD,D835V); [1]): 36% | percent of control binding at 10 µM (LKB1; [1]): 100% | percent of control binding at 10 µM (MAST1; [1]): 91% | percent of control binding at 10 µM (MKNK1; [1]): 100% | percent of control binding at 10 µM (PIK3CA(Q546K); [1]): 100% | percent of control binding at 10 µM (PIP5K2B; [1]): 80% | percent of control binding at 10 µM (PKN2; [1]): 95% | percent of control binding at 10 µM (PYK2; [1]): 86% | percent of control binding at 10 µM (TNK1; [1]): 56% | percent of control binding at 10 µM (TRKB; [1]): 96%

percent of control binding at 10 µM (FLT3(ITD,D835V); [2]): 100% | percent of control binding at 10 µM (LKB1; [2]): 90% | percent of control binding at 10 µM (MAST1; [2]): 86% | percent of control binding at 10 µM (MKNK1; [2]): 82% | percent of control binding at 10 µM (PIK3CA(Q546K); [2]): 90% | percent of control binding at 10 µM (PIP5K2B; [2]): 96% | percent of control binding at 10 µM (PKN2; [2]): 100% | percent of control binding at 10 µM (PYK2; [2]): 99% | percent of control binding at 10 µM (TNK1; [2]): 95% | percent of control binding at 10 µM (TRKB; [2]): 76%
SMILES: O=C(c1cc(Cc2n[nH]c(=O)c3ccccc23)ccc1F)N1CCN(C(=O)C2CC2)CC1 [Olaparib]

Rucaparib / %Ctrl @ 10000nM (FLT3(ITD,D835V); binding competition, % of control): 8.1% | percent of control binding at 10 µM (LKB1; [3]): 91% | percent of control binding at 10 µM (MAST1; [3]): 79% | percent of control binding at 10 µM (MKNK1; [3]): 97% | percent of control binding at 10 µM (PIK3CA(Q546K); [3]): 93% | percent of control binding at 10 µM (PIP5K2B; [3]): 87% | percent of control binding at 10 µM (PKN2; [3]): 99% | percent of control binding at 10 µM (PYK2; [3]): 100% | percent of control binding at 10 µM (TNK1; [3]): 91% | percent of control binding at 10 µM (TRKB; [3]): 66%
SMILES: CNCc1ccc(-c2[nH]c3cc(F)cc4c3c2CCNC4=O)cc1 [Rucaparib]

percent of control binding at 10 µM (FLT3(ITD,D835V); [4]): 100% | percent of control binding at 10 µM (LKB1; [4]): 93% | percent of control binding at 10 µM (MAST1; [4]): 100% | percent of control binding at 10 µM (MKNK1; [4]): 100% | percent of control binding at 10 µM (PIK3CA(Q546K); [4]): 100% | percent of control binding at 10 µM (PIP5K2B; [4]): 92% | percent of control binding at 10 µM (PKN2; [4]): 85% | percent of control binding at 10 µM (PYK2; [4]): 97% | percent of control binding at 10 µM (TNK1; [4]): 93% | percent of control binding at 10 µM (TRKB; [4]): 100%
SMILES: Cn1ncnc1[C@H]1c2n[nH]c(=O)c3cc(F)cc(c23)N[C@@H]1c1ccc(F)cc1 [Talazoparib]
